# Test results taken from US7750017B2, “Heterocycles” (Bayer Schering Pharma Aktiengesellschaft, priority 2004, dated 2010).
# Counter-ions that a name gives are not always drawn.
# Legend:
# [1] = test system: BT474 [human breast carcinoma, overexpressing HER2 (ErbB2)]; test: In vitro tumor cell proliferation assay (Cell Titer-Glo luminescent cell viability), BT474 cells; assay type: cell-based; conditions: BT-474, 72 h, 72 hours of drug exposure, Cell Titer-Glo readout, read-out: IC50, anti-proliferative activity in BT474 cells
# Source text: (§1) The utility of the compounds of the present invention can be illustrated, for example, by their activity in vitro in the in vitro tumor cell proliferation assay described below. The link between activity in tumor cell proliferation assays in vitro and anti-tumor activity in the clinical setting has been very well established in the art.
# (§2) The following assay is one of the methods by which compound activity relating to treatment of the disorders identified herein can be determined.
# (§3) The tumor cell proliferation assay used to test the compounds of the present invention involves a readout called Cell Titer-Glow® Luminescent Cell Viability Assay developed by Promega® (Cunningham, B A “A Growing Issue: Cell Proliferation Assays, Modern kits ease quantification of cell growth” The Scientist 2001, 15(13), 26, and Crouch, S P et al., “The use of ATP bioluminescence as a measure of cell proliferation and cytotoxicity” Journal of Immunological Methods 1993, 160, 81-88), that measures inhibition of cell proliferation. Generation of a luminescent signal corresponds to the amount of ATP present, which is directly proportional to the number of metabolically active (proliferating) cells.
# (§4) A431 cells [human epidermoid carcinoma, ATCC # […], overexpressing HER1 (EGFR, ErbB1)] and BT474 [human breast carcinoma, ATCC # CRL-1555, overexpressing HER2 (ErbB2)] were plated at a density of 2.5×10^3 cells/well in 96 well black-clear bottom tissue culture plates in RPMI media with 10% Fetal Bovine Serum and incubated at 37° C. Twenty-four hours later, test compounds are added at a final concentration range from as high 100 μm to as low 64 pM depend on the activities of the tested compounds in serial dilutions at a final DMSO concentration of 0.1%. Cells were incubated for 72 hours at 37° C. in complete growth media after addition of the test compound. After 72 hours of drug exposure, the plates were equilibrated to room temperature for approximately 30 min. Then, using a Promega Cell Titer Glo Luminescent® assay kit, lysis buffer containing 100 microliters of the enzyme luciferase and its substrate, luciferin mixture, was added to each well. The plates were mixed for 2 min on orbital shaker to ensure cell lysis and incubated for 10 min at room temperature to stabilize luminescence signal. The samples were read on VICTOR 2 using Luminescence protocol, and analyzed with Analyze5 software to generate IC50 values.
# [2] = test system: A431 cells [human epidermoid carcinoma, overexpressing HER1 (EGFR, ErbB1)]; test: In vitro tumor cell proliferation assay (Cell Titer-Glo luminescent cell viability), A431 cells; assay type: cell-based; conditions: A-431, 72 h, 72 hours of drug exposure, Cell Titer-Glo readout, read-out: IC50, anti-proliferative activity in A431 cells
# Source text: as §1, §2, §3, §4
IC50 [1] [µM],IC50 [2] [µM],Structure (SMILES)
≤ 0.5,≤ 50,"CN(C)CCNC(=O)Cc1ccc2c(c1)sc1ncnc(Nc3ccc(OCc4cscn4)c(Cl)c3)c12 [Example 142, 2-(4-{[3-chloro-4-(1,3-thiazol-4-ylmethoxy)phenyl]amino}[1]benzothieno[2,3-d]pyrimidin-7-yl)-N-[2-(dimethylamino)ethyl] acetamide]"
≤ 5,≤ 5,"COC(=O)/C=C/c1ccc2c(c1)sc1ncnc(Nc3ccc(OCc4cccc(F)c4)c(Cl)c3)c12 [Example 47, methyl (2E)-3-[4-({3-chloro-4-[(3-fluorobenzyl)oxy]phenyl}amino)[1]benzothieno[2,3-d]pyrimidin-7-yl]acrylate]"
≤ 0.5,≤ 5,"OCCc1ccc2c(c1)sc1ncnc(Nc3ccc4c(cnn4Cc4ccccn4)c3)c12 [Example 132, 2-(4-{[1-(pyridin-2-ylmethyl)-1H-indazol-5-yl]amino}[1]benzothieno [2,3-d]pyrimidin-7-yl)ethanol]"
≤ 5,≤ 50,"O=C(Cc1ccc2c(c1)sc1ncnc(Nc3ccc(OCc4ccccn4)c(Cl)c3)c12)N(CCO)CCO [Example 105, 2(4-{[3-chloro-4-(pyridin-2-ylmethoxy)phenyl]amino}[1]benzothieno[2,3-d]pyrimidin-7-yl)-N,N-bis-(2-hydroxyethyl) acetamide]"
≤ 5,≤ 50,"O=C(Cc1ccc2c(c1)sc1ncnc(Nc3ccc(OCc4ccccn4)c(Cl)c3)c12)N1CCOCC1 [Example 95, N-[3-chloro-4-(pyridin-2-ylmethoxy)phenyl]-7-(2-morpholin-4-yl-2-oxoethyl)[1]benzothieno[2,3-d]pyrimidin-4-amine]"
≤ 0.5,≤ 50,"Fc1cccc(COc2ccc(Nc3ncnc4sc5cc(N6CCOCC6)ccc5c34)cc2Cl)c1 [Example 44, [3-Chloro-4-(3-fluoro-benzyloxy)-phenyl]-(7-morpholin-4-yl-benzo[4,5]thieno[2,3-d]pyrimidin-4-yl)-amine]"
≤ 5,≤ 50,"O=C(O)Cc1ccc2c(c1)sc1ncnc(Nc3ccc4c(cnn4Cc4cccc(F)c4)c3)c12 [Example 121, (4-{[1-(3-fluorobenzyl)-1H-indazol-5-yl]amino}[1]benzothieno[2,3-d]pyrimidin-7-yl)acetic acid]"
≤ 0.5,≤ 5,"Fc1cccc(COc2ccc(Nc3ncnc4sc5cc(OCCN6CCCC6)ccc5c34)cc2Cl)c1 [Example 41, N-{3-chloro-4-[(3-fluorobenzyl)oxy]phenyl}-7-(2-pyrrolidin-1-ylethoxy)[1] benzothieno[2,3-d]pyrimidin-4-amine]"
≤ 0.5,≤ 5,"Fc1cccc(COc2ccc(Nc3ncnc4sc5cc(CCN6CCNCC6)ccc5c34)cc2Cl)c1 [Example 23, N-{3-chloro-4-[(3-fluorobenzyl)oxy]phenyl}-7-(2-piperazin-1-ylethyl)[1]benzothieno [2,3-d]pyrimidin-4-amine]"
≤ 0.5,≤ 50,"OC[C@@H](O)COc1ccc2c(c1)sc1ncnc(Nc3ccc(OCc4ccccn4)c(Cl)c3)c12 [Example 111, (2R)-3-[(4-{[3-chloro-4-(pyridin-2-ylmethoxy)phenyl]amino}[1]benzothieno[2,3-d]pyrimidin-7-yl)oxy]propane-1,2-diol]"
≤ 0.5,≤ 50,"Clc1cc(Nc2ncnc3sc4cc(N5CCOCC5)ccc4c23)ccc1OCc1ccccn1 [Example 76, N-[3-chloro-4-(pyridin-2-ylmethoxy)phenyl]-7-morpholin-4-yl[1]benzothieno[2,3-d]pyrimidin-4-amine trifluoroacetate]"
≤ 5,≤ 50,"O=C(O)Cc1ccc2c(c1)sc1ncnc(Nc3ccc(OCc4cscn4)c(Cl)c3)c12 [Example 135, (4-{[3-chloro-4-(1,3-thiazol-4-ylmethoxy)phenyl]amino}[1]benzothieno[2,3-d]pyrimidin-7-yl) acetic acid]"
≤ 0.5,≤ 5,"OC[C@H](O)COc1ccc2c(c1)sc1ncnc(Nc3ccc(OCc4cccc(F)c4)c(Cl)c3)c12 [Example 36, (2S)-3-{[4-({3-chloro-4-[(3-fluorobenzyl)oxy]phenyl}amino)[1]benzothieno[2,3-d]pyrimidin-7-yl]oxy}propane-1,2-diol]"
≤ 0.5,≤ 50,"Clc1cc(Nc2ncnc3sc4cc(CCN5CCOCC5)ccc4c23)ccc1OCc1ccccn1 [Example 84, N-[3-chloro-4-(pyridin-2-ylmethoxy)phenyl]-7-(2-morpholin-4-ylethyl)[1]benzothieno[2,3-d] pyrimidin-4-amine]"
≤ 5,≤ 50,"Clc1cc(Nc2ncnc3sc4cc(CCN5CCCC5)ccc4c23)ccc1OCc1ccccn1 [Example 87, N-[3-chloro-4-(pyridin-2-ylmethoxy)phenyl]-7-(2-pyrrolidin-1-ylethyl)[1]benzothieno[2,3-d] pyrimidin-4-amine trifluoroacetate]"
≤ 5,≤ 5,"COC[C@@H]1CCCN1C(=O)Cc1ccc2c(c1)sc1ncnc(Nc3ccc(OCc4ccccn4)c(Cl)c3)c12 [Example 107, N-[3-chloro-4-(pyridin-2-ylmethoxy)phenyl]-7-{2-[2-(methoxymethyl)pyrrolidin-1-yl]-2-oxoethyl}[1]benzothieno[2,3-d] pyrimidin-4-amine]"
≤ 0.5,≤ 50,"CS(=O)(=O)CCNC(=O)C(O)C(O)c1ccc2c(c1)sc1ncnc(Nc3ccc(OCc4cccc(F)c4)c(Cl)c3)c12 (centres unmarked) [Example 60, 3-[4-({3-chloro-4-[(3-fluorobenzyl)oxy]phenyl}amino) [1]benzothieno[2,3-d]pyrimidin-7-yl]-2,3-dihydroxy-N-[2-(methylsulfonyl)ethyl]propanamide]"
≤ 5,≤ 5,"O=C(Cc1ccc2c(c1)sc1ncnc(Nc3ccc(OCc4ccccn4)c(Cl)c3)c12)N1CCC[C@@H]1CO [Example 108, {1-[(4-{[3-chloro-4-(pyridin-2-ylmethoxy)phenyl]amino}[1]benzothieno[2,3-d]pyrimidin-7-yl)acetyl]pyrrolidin-2-yl}methanol]"
≤ 0.5,≤ 5,"OCCc1ccc2c(c1)sc1ncnc(Nc3ccc(OCc4ccccn4)c(Cl)c3)c12 [Example 82, 2-(4-{[3-chloro-4-(pyridin-2-ylmethoxy)phenyl]amino}[1]benzothieno[2,3-d]pyrimidin-7-yl) ethanol]"
≤ 0.5,≤ 5,"COC[C@H]1CCCN1CCc1ccc2c(c1)sc1ncnc(Nc3ccc(OCc4cccc(F)c4)c(Cl)c3)c12 [Example 5, N-{3-chloro-4-[(3-fluorobenzyl)oxy]phenyl}-7-{2-[2-(methoxymethyl)pyrrolidin-1-yl]ethyl}[1]benzothieno[2,3-d] pyrimidin-4-amine]"
≤ 0.5,≤ 50,"Fc1cccc(COc2ccc(Nc3ncnc4sc5cc(CCN6CCOCC6)ccc5c34)cc2Cl)c1 [Example 10, N-{3-chloro-4-[(3-fluorobenzyl)oxy]phenyl}-7-(2-morpholin-4-ylethyl)[1] benzothieno[2,3-d]pyrimidin-4-amine]"
≤ 0.5,≤ 5,"CN(C)CCNC(=O)Cc1ccc2c(c1)sc1ncnc(Nc3ccc4c(cnn4Cc4cccc(F)c4)c3)c12 [Example 126, N-[2-(dimethylamino)ethyl]-2-(4-{[1-(3-fluorobenzyl)-1H-indazol-5-yl]amino}[1]benzothieno[2,3-d]pyrimidin-7-yl)acetamide]"
≤ 0.5,≤ 5,"OCC(CO)c1ccc2c(c1)sc1ncnc(Nc3ccc(OCc4cccc(F)c4)c(Cl)c3)c12 [Example 46, 2-{4-[3-Chloro-4-(3-fluoro-benzyloxy)-phenylamino]-benzo[4,5]thieno[2,3-]pyrimidin-7-yl}-propane-1,3-diol]"

Structure (SMILES),IC50 [1] [µM],IC50 [2] [µM]
"CN1CCN(C(=O)Cc2ccc3c(c2)sc2ncnc(Nc4ccc(OCc5cccc(F)c5)c(Cl)c4)c23)CC1 [Example 32, N-{3-chloro-4-[(3-fluorobenzyl)oxy]phenyl}-7-[2-(4-methylpiperazin-1-yl)-2-oxoethyl][1]benzothieno[2,3-d] pyrimidin-4-amine]",≤ 0.5,≤ 5
"CN1CCN(C(=O)Cc2ccc3c(c2)sc2ncnc(Nc4ccc(OCc5cscn5)c(Cl)c4)c23)CC1 [Example 138, N-[3-chloro-4-(1,3-thiazol-4-ylmethoxy)phenyl]-7-[2-(4-methylpiperazin-1-yl)-2-oxoethyl][1]benzothieno[2,3-d] pyrimidin-4-amine]",≤ 5,≤ 5
